The results in this text go back to US10597390B2, “Indoles for use in influenza virus infection” (Janssen Sciences Ireland UC, priority 2014, dated 2020).

For data set [1], the system named is influenza virus A/Taiwan/1/86 (H1N1). Kind of data set: organism not typed. Type of data set: cell-based. Conditions: CPE in MDCK cells, three days post-virus exposure, ATPlite.
In a further data set the test system is MDCK cells. Conditions: dog, 3 days.
The next data set can be described thus: in vitro. As to conditions: dog, TOX MDCK CC50.

In turn, `Cc1cc(C(=O)N[C@@H]2CCC[C@H](Nc3nc(-c4c[nH]c5c(F)cc(F)cc45)c(C#N)cc3F)C2)nn1C` [Compound 211] showed a melting point of 235 °C. Further, in data set [1], the concentration for half-maximal inhibition (IC50) amounted to 4 nM. This compound also yielded a CC50 with MDCK cells of over 25000 nM.
Regarding `Cc1cc(C(=O)N[C@@H]2CCC[C@H](Nc3nc(-c4c[nH]c5c(F)cc(Cl)cc45)ncc3F)C2)on1` [Compound 44], the melting point came to 255.1 °C. This compound had an IC50 in data set [1] of 15 nM. In the data set with MDCK cells, this compound returned a CC50 of 3500 nM.
On to `O=C(N[C@@H]1CCC[C@H](Nc2nc(-c3c[nH]c4c(F)cc(Cl)cc34)ncc2F)C1)c1ccccn1` (racemic) [Compound 27], for which the half-maximal inhibitory concentration (IC50) in data set [1] is 11 nM. The same compound came in with a CC50 in the data set with MDCK cells of 9500 nM.
On the same counts, the results for `N#Cc1cc(F)c(N[C@H]2C3CCC(CC3)[C@@H]2C(=O)O)nc1-c1c[nH]c2c(F)cc(F)cc12` (mixture of isomers) [Compound 216] are 2 nM and 70 nM.
In turn, `N#Cc1cc(F)c(N[C@@H]2CCC[C@H](NC(=O)N3CCCC3)C2)nc1-c1c[nH]c2c(F)cc(F)cc12` [Compound 163] yielded an IC50 in data set [1] of 720 nM. In the data set on MDCK cells, this compound gave a CC50 of 13200 nM.
The compound `Cc1cc(C(=O)N[C@@H]2CCC[C@H](Nc3nc(-c4c[nH]c5c(F)cc(F)cc45)ncc3F)C2)on1` [Compound 133] yielded a melting point of 278.5 °C. The compound further had a concentration for half-maximal inhibition (IC50) in data set [1] (MDCK, 72 h) of 13 nM. In the data set with MDCK cells, this compound gave a CC50 of 7500 nM.
As for `Cn1ccc(C(=O)N[C@@H]2CCC[C@@H](Nc3nc(-c4c[nH]c5c(F)cc(F)cc45)c(C#N)cc3F)C2)n1` [Compound 206], in data set [1], inhibition was half-maximal at 3 nM (IC50). The cytotoxic concentration (CC50) with MDCK cells was over 25000 nM.
The compound `CC(=O)NCc1cc(F)c(N[C@H]2CCC[C@@H](NC(=O)c3cn(C)cn3)C2)nc1-c1c[nH]c2c(F)cc(F)cc12` [Compound 259] displayed a melting point of over 260 °C. This compound also yielded a half-maximal inhibitory concentration (IC50) in data set [1] of 170 nM. This compound displayed a CC50 in the data set on MDCK cells of over 25000 nM.
The compound `N#Cc1cc(F)c(N[C@H]2C3CCC(CC3)[C@@H]2C(=O)O)nc1-c1c[nH]c2c(F)cc(F)cc12` [Compound 215] showed a half-maximal inhibitory concentration (IC50) in data set [1] of 0.8 nM. The same compound displayed a CC50 with MDCK cells of 150 nM.
In the case of `Cc1cc(C(=O)N[C@@H]2CCC[C@@H](Nc3nc(-c4c[nH]c5c(F)cc(F)cc45)c(C#N)cc3F)C2)on1` (racemic) [Compound 207], the melting point amounted to 285 °C. Besides, the 50% inhibitory concentration (IC50) in data set [1] (MDCK, 72 h) was determined as 12 nM. Also, half-maximal cytotoxicity in the data set with MDCK cells (CC50) was put at 8000 nM.
In data set [1], `Cc1cc(C(=O)N[C@@H]2CCC[C@H](Nc3nc(-c4c[nH]c5c(F)cc(F)cc45)ncc3F)C2)on1` (racemic) [Compound 91] yielded an IC50 of 21 nM. The CC50 with MDCK cells was determined as 18600 nM.
`Cc1cc(C(=O)N[C@@H]2CCC[C@H](Nc3nc(-c4c[nH]c5c(F)cc(F)cc45)ncc3F)C2)nn1C` [Compound 129] returned a melting point of 158 °C. In data set [1], the half-maximal inhibitory concentration (IC50) was found to be 8 nM. The CC50 with MDCK cells was determined as 7500 nM.
In turn, `Cc1cc(F)c2[nH]cc(-c3ncc(F)c(N[C@@H]4CCC[C@@H](NC(=O)c5cncn5C)C4)n3)c2c1` (racemic) [Compound 198] had a melting point of 98 °C. Half-maximal inhibition in data set [1] (MDCK, 72 h) (IC50) required 40 nM. This compound also returned a CC50 at 3 days in the data set “in vitro” of 9700 nM.
For `Cc1cc(F)c2[nH]cc(-c3nc(N[C@@H]4CCC[C@@H](NC(=O)c5ncoc5C)C4)c(F)cc3C#N)c2c1` (racemic) [Compound 192], the melting point was over 250 °C. Moreover, the IC50 in data set [1] (MDCK, 72 h) came to 11 nM. In the data set “in vitro”, this compound came in with a CC50 at 3 days of over 25000 nM.
On the same counts, the results for `Cn1cnc(C(=O)N[C@@H]2CCC[C@H](Nc3nc(-c4c[nH]c5c(F)cc(F)cc45)ncc3F)C2)n1` [Compound 134] are 183.2 °C, 14 nM and 10300 nM.
The compound `Cn1nc(C(=O)N[C@@H]2CCC[C@H](Nc3nc(-c4c[nH]c5c(F)cc(Cl)cc45)ncc3F)C2)cc1N` [Compound 80] showed a melting point of 174.8 °C. For the same compound, half-maximal inhibition in data set [1] (MDCK, 72 h) (IC50) was put at 4 nM. The same compound showed a CC50 at 3 days in the data set “in vitro” of 3900 nM.
Compound `Cc1cn(C)nc1C(=O)N[C@@H]1CCC[C@H](Nc2nc(-c3c[nH]c4c(F)cc(Cl)cc34)ncc2F)C1` [Compound 73] yielded a melting point of 248.4 °C. This compound returned an IC50 in data set [1] (MDCK, 72 h) of 9 nM. The compound also came in with a CC50 at 3 days in “in vitro” of over 25000 nM.
In the case of `Cc1cc(C(=O)N[C@@H]2CCC[C@@H](Nc3nc(-c4c[nH]c5c(F)cc(F)cc45)c(C#N)cc3F)C2)on1` [Compound 220], the IC50 in data set [1] is 10 nM. The midpoint of cytotoxicity in the data set on MDCK cells, the CC50, lay at 3500 nM.
For `O=C(O)c1cccnc1C(=O)N[C@@H]1CCC[C@H](Nc2nc(-c3c[nH]c4c(F)cc(F)cc34)ncc2F)C1` [Compound 225], the melting point came out at 265.2 °C. The same compound returned a half-maximal inhibitory concentration (IC50) in data set [1] (MDCK, 72 h) of 9 nM. The same compound yielded a half-maximal cytotoxic concentration (CC50) at 3 days in the data set “in vitro” of over 5000 nM.
In turn, `Cc1cc(F)c2[nH]cc(-c3ncc(F)c(N[C@H]4CCC[C@@H](NC(=O)c5ncsc5C)C4)n3)c2c1` (racemic) [Compound 193] had a melting point of 234 °C. The same compound displayed an IC50 in data set [1] (MDCK, 72 h) of 5 nM. The compound further gave a half-maximal cytotoxic concentration (CC50) at 3 days in “in vitro” of 3600 nM.
In turn, `Cn1nnc(C(=O)N[C@@H]2CCC[C@H](Nc3nc(-c4c[nH]c5c(F)cc(Cl)cc45)ncc3F)C2)n1` [Compound 74] yielded a melting point of 259.7 °C. This compound gave an IC50 in data set [1] (MDCK, 72 h) of 19 nM. For the same compound, the CC50 at 3 days in “in vitro” was over 25000 nM.
